Experimental data reported in ChEMBL document CHEMBL2331293, “Attenuating Staphylococcus aureus virulence gene regulation: a medicinal chemistry perspective” (J Med Chem, 2013).
Positions of bridges follow the written chain, without caps; N, C: chain ends. Non-standard residues stand in square brackets, D forms with d. Residues, ends and D or L forms follow the SMILES beside them. *: point of attachment. X2 = O=C(c1ccccc1)c1ccc(OCCCC(=O)*)cc1; X1 = O=C(CCCOc1ccc(Cc2ccccc2)cc1)*; NMeF = CN[C@@H](Cc1ccccc1)C(=O)O; NMeL = CN[C@@H](CC(C)C)C(=O)O; NMeS = CN[C@@H](CO)C(=O)O; Abu = CC[C@H](N)C(=O)O; Dap = NC[C@H](N)C(=O)O; Ava = NCCCCC(=O)O; Mpa = O=C(O)CCS

Key:
[1] = Inhibition of Staphylococcus aureus AgrC1
[2] = Inhibition of Staphylococcus aureus AgrC3
[3] = test system: Staphylococcus aureus; test: Inhibition of Staphylococcus aureus AgrC1-mediated RNA3 promoter activation at 12 uM
[4] = Inhibition of Staphylococcus aureus AgrC1-mediated RNA3 promoter activation
[5] = Inhibition of Staphylococcus aureus AgrC4
[6] = Inhibition of Staphylococcus aureus AgrC2
[7] = Activation of Staphylococcus aureus AgrC1
[8] = Activation of Staphylococcus aureus AgrC4

IC50 [1] [nM] | IC50 [2] [nM] | IC50 [6] [nM] | SMILES | also measured
5 | 0.1 | 5 | CC[C@H](C)[C@@H]1NC(=O)[C@H](Cc2ccccc2)NC(=O)[C@H](C)NC(=O)[C@@H](NC(C)=O)CSC(=O)[C@H](CCSC)NC1=O (Ac-CAFIM; thioester 1-C) | IC50 [5]: 5 nM
 | 240 | 47 | CC[C@H](C)[C@@H]1NC(=O)[C@H](Cc2ccccc2)NC(=O)[C@H](CC(=O)O)NC(=O)[C@@H](NC(C)=O)CSC(=O)[C@H](CCSC)NC1=O (Ac-CDFIM; thioester 1-C) | EC50 [7]: 5800 nM
77 |  | 238 | CC(=O)N[C@H]1CSC(=O)[C@H](Cc2ccccc2)NC(=O)[C@H](CC(C)C)NC(=O)CNC(=O)CNC1=O (Ac-CGGLF; thioester 1-C) | 
189 |  | 1160 | CC(=O)N[C@H]1CSC(=O)[C@H](Cc2ccccc2)NC(=O)[C@H](CC(C)C)NC(=O)[C@H](CO)NC(=O)CNC1=O (Ac-CGSLF; thioester 1-C) | 
40 |  | 194 | CC(=O)N[C@H]1CSC(=O)[C@H](Cc2ccccc2)NC(=O)[C@H](CC(C)C)NC(=O)CNC(=O)[C@H](CO)NC1=O (Ac-CSGLF; thioester 1-C) | 
260 | 4 | 230 | CC(=O)N[C@H]1CSC(=O)[C@H](Cc2ccccc2)NC(=O)[C@H](CC(C)C)NC(=O)[C@H](CO)NC(=O)[C@H](CO)NC1=O (Ac-CSSLF; thioester 1-C) | IC50 [5]: 150 nM
> 30000 |  | > 30000 | CC(=O)N[C@H]1CSC(=O)[C@H](Cc2ccccc2)N(C)C(=O)[C@H](CC(C)C)NC(=O)[C@H](CO)NC(=O)[C@H](CO)NC1=O (Ac-CSSL[NMeF]; thioester 1-C) | 
> 30000 |  | > 30000 | CC(=O)N[C@H]1CSC(=O)[C@H](Cc2ccccc2)NC(=O)[C@H](CC(C)C)N(C)C(=O)[C@H](CO)NC(=O)[C@H](CO)NC1=O (Ac-CSS[NMeL]F; thioester 1-C) | 
319 |  | 1050 | CC(=O)N[C@H]1CSC(=O)[C@H](Cc2ccccc2)NC(=O)[C@H](CC(C)C)NC(=O)[C@H](CO)N(C)C(=O)[C@H](CO)NC1=O (Ac-CS[NMeS]LF; thioester 1-C) | 
930 | 10 | 8 | CC[C@H](C)[C@@H]1NC(=O)[C@H](Cc2ccccc2)NC(=O)[C@H](Cc2ccc(O)cc2)NC(=O)[C@@H](NC(C)=O)CSC(=O)[C@H](CCSC)NC1=O (Ac-CYFIM; thioester 1-C) | IC50 [5]: 4100 nM
1140 |  | 50700 | CC(=O)N[C@H]1CSC(=O)[C@H](Cc2ccccc2)NC(=O)[C@H](CC(C)C)NC(=O)CCCCNC1=O (Ac-C[Ava]LF; thioester 1-C) | 
639 |  | 7880 | CC(=O)N[C@H]1CSC(=O)[C@H](Cc2ccccc2)NC(=O)[C@H](CC(C)C)NC(=O)[C@H](CO)NC(=O)[C@H](CO)N(C)C1=O (Ac-C[NMeS]SLF; thioester 1-C) | 
1390 |  | 167000 | CC(=O)N[C@H]1CNC(=O)[C@H](Cc2ccccc2)NC(=O)[C@H](CC(C)C)NC(=O)[C@H](CO)NC(=O)[C@H](CO)NC1=O (Ac-[Dap]SSLF; lactam 1-C) | 
295 |  | 19 | CC[C@H](C)[C@@H]1NC(=O)[C@H](Cc2ccccc2)NC(=O)[C@H](C)NC(=O)[C@@H](NC(=O)[C@@H](NC(=O)[C@H](CO)NC(=O)CCCOc2ccc(Cc3ccccc3)cc2)[C@@H](C)O)CSC(=O)[C@H](CCSC)NC1=O (X1-STCAFIM; thioester 3-C) | 
303 |  | 18 | CC[C@H](C)[C@@H]1NC(=O)[C@H](Cc2ccccc2)NC(=O)[C@H](C)NC(=O)[C@@H](NC(=O)[C@@H](NC(=O)[C@H](CO)NC(=O)CCCOc2ccc(C(=O)c3ccccc3)cc2)[C@@H](C)O)CSC(=O)[C@H](CCSC)NC1=O (X2-STCAFIM; thioester 3-C) | 
1680 |  | 47300 | CC(C)C[C@@H]1NC(=O)[C@H](CO)NC(=O)[C@H](CO)NC(=O)CCSC(=O)[C@H](Cc2ccccc2)N(C)C1=O ([Mpa]SSL[NMeF]; thioester 1-C) | 

Continued, molecule first:

SMILES | IC50 [1] [nM] | IC50 [2] [nM] | IC50 [6] [nM] | also measured
CCCCCCCc1cc(O)c2ccccc2[n+]1[O-] | 1300 |  |  | 
CC1CCCN(C(C(=O)Nc2ccc3c(c2)OCO3)c2ccccc2)C1 (stereo not given) |  | 160 |  | 
CC1CCN(C(C(=O)Nc2ccc3c(c2)OCO3)c2ccccc2)CC1 (stereo not given) |  | 980 |  | 
CC1CCN(C(C(=O)Nc2ccc(C(C)C)cc2)c2ccc3c(c2)OCO3)CC1 (stereo not given) |  | 720 |  | 
CC1CCCN(C(C(=O)Nc2ccc3c(c2)OCCO3)c2ccccc2)C1 (stereo not given) |  | 130 |  | inhibition [3]: > 90%; IC50 [4]: 100 nM
O=C(Nc1ccc2c(c1)OCO2)C(c1ccccc1)N1CCCCC1 (stereo not given) |  | 1260 |  | 
CCCCc1oc2ccccc2c1C(=O)c1ccc(O)cc1 | 540 |  |  | 
CC(C)c1ccc(NC(=O)C(c2ccc3c(c2)OCO3)N2CCCCC2)cc1 (stereo not given) |  | 250 |  | 
COc1ccc(NC(=O)C(c2cc3c(cc2[N+](=O)[O-])OCO3)N2CC(C)CC(C)C2)cc1 (stereo not given) |  | 1310 |  | 
O=C(Nc1ccc2c(c1)OCO2)C(c1ccccc1)N1CCC(Cc2ccccc2)CC1 (stereo not given) |  | 980 |  | 
CCOC(=O)c1c(C)oc2cc(-c3cc(Br)c(O)c(Br)c3)ccc12 | 780 |  |  | 
CC[C@H](C)[C@@H]1NC(=O)[C@H](Cc2ccccc2)NC(=O)[C@H](C)NC(=O)[C@@H](NC(=O)[C@@H](NC(=O)[C@H](CO)NC(=O)[C@@H](N)Cc2ccc(O)cc2)[C@@H](C)O)CSC(=O)[C@H](CCSC)NC1=O (H-YSTCAFIM; thioester 4-C) | 5 | 0.3 | 8 | IC50 [5]: 3 nM
CC[C@H](C)[C@@H]1NC(=O)[C@H](Cc2ccccc2)NC(=O)[C@H](CC(=O)O)NC(=O)[C@@H](NC(=O)[C@@H](NC(=O)[C@H](CO)NC(=O)[C@@H](N)Cc2ccc(O)cc2)[C@@H](C)O)CSC(=O)[C@H](CCSC)NC1=O (H-YSTCDFIM; thioester 4-C) |  | 3 | 25 | EC50 [8]: 26000 nM; EC50 [7]: 28 nM
CC[C@@H]1NC(=O)[C@@H](NC(=O)[C@@H](NC(=O)[C@H](CO)NC(=O)[C@@H](N)Cc2ccc(O)cc2)[C@@H](C)O)CSC(=O)[C@H](CCSC)NC(=O)[C@H]([C@@H](C)CC)NC(=O)[C@H](Cc2ccccc2)NC1=O (H-YSTC[Abu]FIM; thioester 4-C) | 137 |  | 2.8 | 
CCc1oc2ccccc2c1C(=O)c1ccc(O)cc1 [BENZARONE] | 1290 |  |  | 
CCc1oc2ccccc2c1C(=O)c1cc(Br)c(O)c(Br)c1 [BENZBROMARONE] | 130 |  |  | 
CC(C)c1ccc(S(=O)(=O)c2nnn3c2nc(O)c2ccccc23)cc1 [SAVIRIN] | < 1000 |  |  | 
